# Measured values: patent publication US11149033B2, “Heteroaryl compound, enantiomer, diastereomer or pharmaceutically acceptable salt thereof, and antiviral composition containing same as active ingredient” (priority 2016, dated 2021)
# Legend:
# B/Florida/04/2006 = test: Antiviral activity (drug efficacy evaluation by concentration) against B/Florida/04/2006; assay type: cell-based, B type influenza virus; conditions: read-out: EC50 B/Florida/04/2006, B/Florida/04/2006
# in vitro = conditions: CC50 B/Florida/04/2006, cytotoxicity in the B/Florida/04/2006 assay
# A/Perth/16/2009 (H3N2) = test: Antiviral activity (drug efficacy evaluation by concentration) against A/Perth/16/2009 (H3N2); assay type: cell-based, A type influenza virus; conditions: Influenza A virus, H3N2, A/Perth/16/2009 (H3N2); read-out: EC50 A/Perth/16/2009 (H3N2)
# [1] = system: A/California/07/2009 (H1N1); test: Antiviral activity (drug efficacy evaluation by concentration) against A/California/07/2009 (H1N1); assay type: cell-based, A type influenza virus; conditions: Influenza A virus, H1N1, A/California/07/2009 (H1N1); read-out: EC50 A/California/07/2009 (H1N1)
Structure (SMILES),EC50 (B/Florida/04/2006) [µM],CC50 (in vitro) [µM],EC50 (A/Perth/16/2009 (H3N2)) [µM],EC50 [1] [µM]
"Brc1ccn(Cc2nnc(SCc3ccccc3-c3ccccc3)o2)n1 [Compound 11, 2-(([1,1′-biphenyl]-2-ylmethyl)thio)-5-((3-bromo-1H-pyrazol-1-yl)methyl)-1,3,4-oxadiazole]",12.9,> 50,12.5,13.2
"Cc1nn(Cc2nnc(SCC(=O)c3ccccc3-c3ccccc3)o2)c(C)c1Br [Compound 13, 1-([1,1′-biphenyl]-2-yl)-2-((5-((4-bromo-3,5-dimethyl-1H-pyrazol-1-yl)methyl)-1,3,4-oxadiazol-2-yl)thio)ethan-1-on]",42.5,> 50,> 50,> 50
"Cc1nn(Cc2nnc(SCc3ccccc3)o2)c(C)c1Br [Compound 14, 2-(benzylthio)-5-((4-bromo-3,5-dimethyl-1H-pyrazol-1-yl)methyl)-1,3,4-oxadiazole]",16.4,> 50,20.5,18
"Cc1nn(Cc2nnc(NCc3ccccc3-c3ccccc3)o2)c(C)c1Br [Compound 17, N-([1,1′-biphenyl]-2-ylmethyl)-5-((4-bromo-3,5-dimethyl-1H-pyrazol-1-yl)methyl)-1,3,4-oxadiazol-2-amine]",19,38.1,30,35.2
"c1ccc(Cc2nnc(SCc3ccccc3-c3ccccc3)o2)cc1 [Compound 18, 2-(([1,1′-biphenyl]-2-ylmethyl)thio)-5-benzyl-1,3,4-oxadiazole]",5.18,> 50,6.8,6.1
"Cc1nn(Cc2nnc(SCc3ccccc3-c3cccnc3)o2)c(C)c1Br [Compound 19, 2-((4-bromo-3,5-dimethyl-1H-pyrazol-1-yl)methyl)-5-((2-(pyridin-3-yl)benzyl)thio)-1,3,4-oxadiazole]",> 50,> 50,> 50,> 50
"Brc1ccc(Cc2nnc(SCc3ccccc3-c3ccccc3)o2)cc1 [Compound 22, 2-(([1,1′-biphenyl]-2-ylmethyl)thio)-5-(4-bromobenzyl)-1,3,4-oxadiazole]",4.88,> 50,5,4.9
"Cc1nn(Cc2nnc(SCc3ccccc3C(C)C)o2)c(C)c1Br [Compound 23, 2-((4-bromo-3,5-dimethyl-1H-pyrazol-1-yl)methyl)-5-((2-isopropylbenzyl)thio)-1,3,4-oxadiazole]",0.82,14.2,1.1,0.6
"Cc1nn(Cc2nnc(SC(c3ccccc3)c3ccccc3)o2)c(C)c1Br [Compound 25, 2-(benzhydrylthio)-5-((4-bromo-3,5-dimethyl-1H-pyrazol-1-yl)methyl)-1,3,4-oxadiazole]",5.18,9.4,2,2.5
"Cc1ccccc1CCSc1nnc(Cn2nc(C)c(Br)c2C)o1 [Compound 26, 2-((4-bromo-3,5-dimethyl-1H-pyrazol-1-yl)methyl)-5-((2-methylphenethyl)thio)-1,3,4-oxadiazole]",36.2,> 50,29.4,31.2
"c1ccc(-c2ccccc2CSc2nnc(Cc3ccccn3)o2)cc1 [Compound 27, 2-(([1,1′-biphenyl]-2-ylmethyl)thio)-5-(pyridin-2-ylmethyl)-1,3,4-oxadiazole]",13.4,> 50,6.8,8.7
"c1ccc(-c2cnn(Cc3nnc(SCc4ccccc4-c4ccccc4)o3)c2)cc1 [Compound 30, 2-(([1,1′-biphenyl]-2-ylmethyl)thio)-5-((4-phenyl-1H-pyrazol-1-yl)methyl)-1,3,4-oxadiazole]",> 50,> 50,13,> 50
